This experiment deals with HMC-1 cells. Description: Mast cell test: histamine release from IgE/anti-IgE stimulated HMC-1 cells, ELISA of supernatant. The experiment is classed as cell-based. The note with it: for Histamine reduction (%): compared to respective vehicle control; for Histamine (ng/ml) mean ± SD (n = 3): HMC-1 cells, supernatant ELISA. The procedure: Mast cell lines, i.e. HMC1 cells (provided by Dr Joseph H. Butterfield; Mayo Clinic, Rochester, Minn., USA), were cultured in Isocove's Modified Dulbecco's Medium (IMDM) containing 10% Fetal Bovine Seum (FBS), 2 mM L-glutamine, 50 μM 2-mercaptoethanol, 100 U/mL penicillin and 100 μg/mL streptomycin. Cells were maintained at 37° C. in 5% CO2 in a humidified atmosphere. Percentage of living cells was determined by trypan blue staining. A 1:10 dilution with 50 μl cell suspension and 450 μl trypan blue was prepared and the number of living and dead cells was counted in a hemocytometer. 10^6 living cells were transferred into safe-lock Eppendorf tubes. Cell suspensions were centrifuged (200 g, 5 min) and supernatant was discarded. The effect of perilla oil, sesame oil and a combination of perilla oil and sesame oil (1:1 ratio) in the vehicle Kolliphor ELP (polyoxyl-35 hydrogenated castor oil) was determined. The positive control Cromolyn in phosphate buffer saline (PBS), the vehicles PBS and ELP were also tested as controls. After adding 100 μl IgE (100 ng/ml in PBS or ELP) to the cell pellets, cells were incubated for 12 hours over night, at 37° C. Cells were then incubated for 2 hours, at 37° C. with two different concentrations of compounds, i.e. 250 μg/ml and 500 μg/ml. After centrifugation (200 g, 5 min) supernatant was discarded and cell pellet was again incubated for 1 hour, at 37° C. with 100 μl anti-IgE (1 μg/ml in PBS or ELP). For the final incubation time of 6 hours, at 37° C., 300 μl HMC1 media was added. Cells were again centrifuged (200 g, 5 min) and supernatant was collected and stored as 300 μl aliquots at −20° C. for ELISA measurements. Cell pellets were resuspended in 100 μl HMC1 media for determining cell viability. The concentration of histamine in the collected supernatant was determined by ELISA, using a kit obtained from IBL International according to the manufacturer's guidelines. Each sample was measured twice. Due to expected measuring limits, vehicle (PBS, ELP) treated samples were diluted 1:2. Statistical analysis was performed with GraphPad Prism (Version 5.01) software (GraphPad Software Inc., San Diego, Calif., USA) using the unpaired two-tailed Students t test. A P value of less than 0.05 was considered statistically significant.
(In general: In an ELISA, binding on a coated surface is turned into a signal by an enzyme label.)

SMILES strings stand for the structures.

On to `O=C(O)c1cc(=O)c2c(OCC(O)COc3cccc4oc(C(=O)O)cc(=O)c34)cccc2o1` [Cromolyn], for which, under “250 μg/ml”, the “Histamine reduction (%) compared to averaged histamine release of perilla oil and sesame oil” value worked out at 8.41%; the “Histamine reduction (%)” value is 57.61%; the “Histamine (ng/ml) mean ± SD (n = 3)” value worked out at 121.05 ± 0.73 ng/mL. Moreover, where the note is “500 μg/ml”, the “Histamine reduction (%) compared to averaged histamine release of perilla oil and sesame oil” value is on record as 6.75%; the “Histamine reduction (%)” value is given as 55.28%; the “Histamine (ng/ml) mean ± SD (n = 3)” value amounted to 127.70 ± 13.32 ng/mL. Besides, the “Increase of percentage of histamine reduction compared to treatment with individual compounds” value (range over 250 and 500 μg/ml) was 6.8-8.4%.
